Measured values reported in doi:10.1101/2025.10.30.685166v1 (biorxiv, 2025).

How the values were obtained:
[1] = target: T1, Hco-UNC-49B homomeric channel (Haemonchus contortus, UniProt D6BK80); assay: cell-based
T1 sequence (D6BK80 22-496): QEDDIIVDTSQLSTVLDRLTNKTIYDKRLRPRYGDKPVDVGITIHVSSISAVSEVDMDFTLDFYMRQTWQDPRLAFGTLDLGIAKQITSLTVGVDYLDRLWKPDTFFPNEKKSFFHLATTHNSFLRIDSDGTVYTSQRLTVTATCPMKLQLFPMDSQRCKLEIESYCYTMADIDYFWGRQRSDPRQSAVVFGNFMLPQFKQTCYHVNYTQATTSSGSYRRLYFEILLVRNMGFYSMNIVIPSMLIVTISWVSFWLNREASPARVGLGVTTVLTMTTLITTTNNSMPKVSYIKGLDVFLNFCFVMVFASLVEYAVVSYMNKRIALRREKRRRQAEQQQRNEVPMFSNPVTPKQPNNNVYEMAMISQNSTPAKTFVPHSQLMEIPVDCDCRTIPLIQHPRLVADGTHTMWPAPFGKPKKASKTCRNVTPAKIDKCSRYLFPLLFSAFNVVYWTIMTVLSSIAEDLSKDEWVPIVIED

[2] = target: T2, Hco-UNC-49B/Hco-UNC-49C heteromeric channel (Haemonchus contortus, UniProt D6BJF3+D6BK80); assay: cell-based
T2 sequence (D6BK80 22-496): T1 sequence (D6BK80 22-496)
T2 sequence (D6BJF3 22-440): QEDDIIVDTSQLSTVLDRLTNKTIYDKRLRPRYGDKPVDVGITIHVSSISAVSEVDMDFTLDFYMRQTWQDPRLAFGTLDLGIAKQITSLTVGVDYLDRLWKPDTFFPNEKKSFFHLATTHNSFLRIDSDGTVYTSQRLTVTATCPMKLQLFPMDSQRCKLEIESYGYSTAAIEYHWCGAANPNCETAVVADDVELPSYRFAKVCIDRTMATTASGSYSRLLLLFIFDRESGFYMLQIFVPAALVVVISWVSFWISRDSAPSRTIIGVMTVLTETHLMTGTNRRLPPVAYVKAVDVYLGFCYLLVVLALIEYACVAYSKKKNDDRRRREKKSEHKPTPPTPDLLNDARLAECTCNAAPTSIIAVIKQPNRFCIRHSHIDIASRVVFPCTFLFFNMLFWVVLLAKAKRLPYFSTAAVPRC

Q: What does the source list for `NCCCC(=O)O` [GABA]?
A: EC50 [1]: 137 ± 7 µM; EC50 [2]: 84.9 ± 4 µM
